Experimental data as given in BindingDB's records for doi:10.1016/j.bmc.2007.01.046 (University of Tokyo, 2007).

Molecular target: T1, Bile acid receptor (Homo sapiens, UniProt Q96RI1)
T1 sequence (Q96RI1 whole entry): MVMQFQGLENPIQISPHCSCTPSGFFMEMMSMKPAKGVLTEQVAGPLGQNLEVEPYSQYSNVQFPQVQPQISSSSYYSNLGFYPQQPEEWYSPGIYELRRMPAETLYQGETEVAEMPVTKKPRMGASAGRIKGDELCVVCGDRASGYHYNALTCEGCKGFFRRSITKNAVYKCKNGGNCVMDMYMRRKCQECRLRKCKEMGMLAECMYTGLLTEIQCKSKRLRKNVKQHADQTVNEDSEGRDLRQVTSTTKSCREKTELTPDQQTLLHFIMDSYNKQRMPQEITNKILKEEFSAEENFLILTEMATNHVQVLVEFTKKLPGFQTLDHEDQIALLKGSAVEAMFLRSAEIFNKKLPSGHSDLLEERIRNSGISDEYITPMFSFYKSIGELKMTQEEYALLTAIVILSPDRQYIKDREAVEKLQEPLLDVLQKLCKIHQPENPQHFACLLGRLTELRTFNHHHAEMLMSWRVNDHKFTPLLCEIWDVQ
Assay: Cotransfection Assay
Details: pH 7.2; 37 °C

Structure (SMILES)	EC50 [µM]
O=C(O)c1cccc(/C=C/c2ccc(OCc3c(-c4c(Cl)cccc4Cl)noc3-c3ccc(-c4ccccc4)cc3)cc2Cl)c1 [3-[(E)-2-(2-chloro-4-{[3-(2,6-dichlorophenyl)-5-(4-phenylphenyl)-1,2-oxazol-4-yl]methoxy}phenyl)ethenyl]benzoic acid]	33.9
O=C(O)c1cccc(/C=C/c2ccc(OCc3c(-c4c(Cl)cccc4Cl)noc3-c3ccccc3)cc2Cl)c1 [3-[(E)-2-(2-chloro-4-{[3-(2,6-dichlorophenyl)-5-phenyl-1,2-oxazol-4-yl]methoxy}phenyl)ethenyl]benzoic acid]	15.8
O=C(O)c1cccc(NC(=O)c2ccc(OCc3c(-c4c(Cl)cccc4Cl)noc3-c3ccc4ccccc4c3)cc2Cl)c1 [3-[(2-chloro-4-{[3-(2,6-dichlorophenyl)-5-(naphthalen-2-yl)-1,2-oxazol-4-yl]methoxy}benzene)amido]benzoic acid]	4
O=C(O)c1cccc(/C=C/c2ccc(OCc3c(-c4c(Cl)cccc4Cl)noc3-c3ccc4ccccc4c3)cc2Cl)c1 [3-[(E)-2-(2-chloro-4-{[3-(2,6-dichlorophenyl)-5-(naphthalen-2-yl)-1,2-oxazol-4-yl]methoxy}phenyl)ethenyl]benzoic acid]	22.2
O=C(O)c1cccc(NC(=O)c2ccc(OCc3c(-c4c(Cl)cccc4Cl)noc3-c3ccc(-c4ccccc4)cc3)cc2Cl)c1 [3-[(2-chloro-4-{[3-(2,6-dichlorophenyl)-5-(4-phenylphenyl)-1,2-oxazol-4-yl]methoxy}benzene)amido]benzoic acid]	3.7
